Results taken from BindingDB's records for doi:10.7270/Q2NV9GNV (Vanderbilt Screening Center for GPCRs, Ion Channels and …, 2009).

Target: T1, Muscarinic acetylcholine receptor M4 (Rattus norvegicus, UniProt P08485)
T1 sequence (P08485 whole entry): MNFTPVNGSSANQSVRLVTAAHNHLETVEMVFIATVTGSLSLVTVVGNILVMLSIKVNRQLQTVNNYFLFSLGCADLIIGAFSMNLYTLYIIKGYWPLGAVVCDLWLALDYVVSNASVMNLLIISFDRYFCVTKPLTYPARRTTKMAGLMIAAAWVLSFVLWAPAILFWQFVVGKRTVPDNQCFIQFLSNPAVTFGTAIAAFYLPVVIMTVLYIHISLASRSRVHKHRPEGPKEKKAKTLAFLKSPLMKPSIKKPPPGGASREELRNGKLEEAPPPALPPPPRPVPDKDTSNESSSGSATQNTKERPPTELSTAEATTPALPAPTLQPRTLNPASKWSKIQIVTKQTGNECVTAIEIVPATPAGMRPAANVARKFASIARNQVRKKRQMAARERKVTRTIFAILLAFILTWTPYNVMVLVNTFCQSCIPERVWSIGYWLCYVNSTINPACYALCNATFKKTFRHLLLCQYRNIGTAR
Assay: rat M4 radioligand competition binding – biochemical, NMS competition, mechanism study for M4 PAM project, late-stage follow-up (AID 1939)
Conditions: inactive by the depositor's call

Structure (SMILES): Cc1cc(C)c2c(N)c(C(=O)NCc3ccc4c(c3)OCO4)sc2n1 [3-amino-4,6-dimethyl-N-piperonyl-thieno[2,3-b]pyridine-2-carboxamide]
- Ki: 0.0468 µM
